The test system of the experiment is EGFP-LA795 cells. Put plainly: Inhibitory effect of chlorogenic acid on metastasis in LA795 lung cancer mice. It counts as in vivo, T739 mice. As to conditions: for Abdominal metastasis / Axial bone metastasis / Bloody ascites / Brain metastasis / Limb bone metastasis / Local lymph node metastasis: once a day for 20 days, mice with finding/n = 10. The text has this:
(1) Animals: T739 mice, half male and half female, weighing 18-22 g, are provided by the Experimental Animal Center of Sichuan University.
(2) Lung cancer cell lines: LA795, provided by Wuhan Procell Life Technology Co., Ltd.; Fetal bovine serum, provided by Hangzhou Sijiqing Bioengineering Materials Co., Ltd.; plasmid EGFP-C1, provided by Clontech; Liposome transfection reagent Lipofectamin 2000, provided by Invitrogen.
LA795 cells were inoculated in a 6-well culture plate at 1×10^7 cells/mL, using DMEM complete medium containing 10% fetal bovine serum, and cultured in a 37° C., 5% CO2 incubator. When the cells were about 70% fused, liposome transfection reagent lipid Lipofectamin2000 was used and LA795 cells were transfected into plasmid EGFP-C1. 48 h after transfection, cells were passed and screened by G 418, then anti-G418 fluorescent positive clones appeared after about 4 weeks. Clones were observed under fluorescent inverted microscope, and one resistant fluorescent cell clone was randomly picked and transferred to 96-well plate for culture. After stepwise expansion, cells were routinely cultured and passaged. 400 μg/ml G418 was used to maintain screening and obtain expanded EGFP-LA795 cells. When EGFP-LA795 cells are 80%-90% fused in the logarithmic growth phase, they are digested with 0.25% trypsin, then centrifuged, and the cells are resuspended in DMEM to prepare a cell suspension for seeding (cell concentration 1×10^7 cells/mL). EGFP-LA795 cells grown on the wall were trypsinized to prepare a single cell suspension, and then diluted appropriately. The cell suspension was mixed with 0.4% trypan blue solution and counted under the microscope. The survival rate of EGFP-LA795 cells was >90%, and the positive clones were picked out under an inverted fluorescence microscope, followed by culture and amplification, to obtain LA795 cells with green fluorescence.
0.2 ml of EGFP-LA795 cell suspension at 1.0×10^7 cells/ml was inoculated into the armpit of mice, and then the mice were randomly divided into groups, 10 mice for each group, including the high-dose chlorogenic acid group, the middle-dose chlorogenic acid group, and the low-dose chlorogenic acid group and the model control group. Chlorogenic acid was administered by intraperitoneal injection, 40 mg/kg for the high-dose group, 20 mg/kg for the middle-dose group, 10 mg/kg for the low-dose group, and the administration volume was 1.0 ml; the model control group was given the same volume of normal saline by intraperitoneal injection, once a day for 20 days. In vivo imaging observations were performed on days 0, 10, and 20, respectively. After the test, the mice were sacrificed by cervical dislocation, and peripheral lymph nodes, axial bones, and long bones of the limbs were taken to observe and count metastases.
10% chloral hydrate was intraperitoneally injected at 4 ml/kg for anesthetization, and mice were put on the black rubber pad prepared for the in vivo imager. The irradiation conditions were GFP, the emission wavelength was 520 nm, the excitation wavelength was 480 nm, and the exposure time was 5 ms. The volume changes and metastasis of the tumor were observed.
Surrounding lymph nodes were taken out, and 8 μm conventional and frozen sections were obtained, and routinely stained with hematoxylin-eosin (HE) every other one, to observe the tumor metastasis under fluorescence microscope and light microscope.
Axial bones (such as ribs, spine, ilium, scapula) and long bones of the limbs of mice were chosen, cut into 0.5 cm×0.3 cm×0.3 cm bone pieces, and fixed with frozen 4% paraformaldehyde solution at 5° C. for 12 h-24 h; the bones were rinsed with phosphate buffer and decalcified with EDTA until the bone slices were completely decalcified. […]

The mark [1] stands for this setting: high dose group, 40 mg/kg intraperitoneal injection.
[2] abbreviates: low dose group, 10 mg/kg intraperitoneal injection.
Setting [3] is: medium dose group, 20 mg/kg intraperitoneal injection.

Marks after values point to notes of the source that are not given here.

As for `O=C(/C=C/c1ccc(O)c(O)c1)O[C@@H]1C[C@](O)(C(=O)O)C[C@@H](O)[C@H]1O` [Chlorogenic acid, chlorogenic acid], the “metastasis of LA795 lung cancer cells in mice” value (20 mg/kg medium-dose group) was “No metastasis was found”. Moreover, under setting [1], the Abdominal metastasis was 1/10*, the Axial bone metastasis is given as 0/10*, the Bloody ascites is reported as 0/10* and the Brain metastasis was 0/10*. Moreover, under setting [1], the Limb bone metastasis was 0/10* and the “Local lymph node metastasis” value is listed as 1/10*. Under setting [2], the Abdominal metastasis is listed as 2/10*, the Axial bone metastasis is given as 0/10*, the Bloody ascites was 0/10* and the Brain metastasis is 0/10*. Moreover, under setting [2], the Limb bone metastasis is listed as 0/10* and the “Local lymph node metastasis” value is 1/10*. In addition, the “number of metastatic foci in mice” value (low, medium and high dose groups versus model control group) is reported as “significantly reduced”. Under setting [3], the Abdominal metastasis is 0/10*, the Axial bone metastasis is 0/10*, the Bloody ascites is given as 0/10* and the Brain metastasis is listed as 0/10*. Under setting [3], the Limb bone metastasis is given as 0/10* and the “Local lymph node metastasis” value is 0/10*.

The values above are taken from patent publication US20210236449A1, “USE OF CHLOROGENIC ACID IN PREPARING DRUG FOR PREVENTING OR BLOCKING BRAIN AND/OR BONE METASTASES OF LUNG CANCER” (SICHUAN JIUZHANG BIOLOGICAL SCIENCE AND TECHNOLOGY CO., LTD, priority 2018, published 2021).
